The source of these data is PMC10377643, “Exploration of Bis-Cinnamido-Polyamines as Intrinsic Antimicrobial Agents and Antibiotic Enhancers” (Biomolecules, 2023).

As a reminder, the MIC is the lowest concentration that inhibits growth of the organism.

The subject of series [1] is E. coli ATCC 25922. Description: Erythromycin enhancement against E. coli. It counts as cell-based, Escherichia coli. The settings on record: erythromycin fixed at 10.9 µM (8 µg/mL). The method, then: (§1) Antibiotic enhancer concentrations were determined using previously reported protocols.
Series [2] concerns MRSA ATCC 43300. The series can be described thus: Antimicrobial MIC, MRSA (CO-ADD). In kind it is cell-based, methicillin-resistant S. aureus. Conditions: Staphylococcus aureus; MRSA ATCC 43300; mean (n = 2); read-out: MIC MRSA. The protocol: (§2) The susceptibility of bacterial strains S. aureus (ATCC 25923), E. coli (ATCC 25922) and P. aeruginosa (ATCC 27853) to antibiotics and compounds was determined using protocols reported previously. Additional antimicrobial evaluation against MRSA (ATCC 43300), Klebsiella pneumoniae (ATCC 700603), Acinetobacter baumannii (ATCC 19606), Candida albicans (ATCC 90028) and Cryptococcus neoformans (ATCC 208821) was undertaken at the Community for Open Antimicrobial Drug Discovery at The University of Queensland (Australia) according to their standard protocols reported previously.

In series [3] the test system is P. aeruginosa ATCC 27853. The series can be described thus: Antimicrobial MIC, P. aeruginosa. In kind it is cell-based. The settings on record: Pseudomonas aeruginosa, ATCC27853, mean (n = 3). The protocol: as §2
The subject of series [4] is P. aeruginosa ATCC 27853. The series can be described thus: Doxycycline enhancement against P. aeruginosa. It counts as cell-based, Pseudomonas aeruginosa. The settings on record: doxycycline fixed at 4.5 µM. The method, then: as §1
We then evaluated the set of analogues for the ability to enhance the antibiotic activity of doxycycline against P. aeruginosa ATCC 27853 and of erythromycin against E. coli ATCC 25922 (Table 2). In the case of doxycycline, a fixed concentration of the antibiotic of 4.5 μM, which is twenty-fold lower than the intrinsic MIC 90 μM against this organism, was used. Each of the test compounds was then evaluated at a range of concentrations varying from 3.125 to 50–100 μM, with the upper concentration dependent upon the compounds intrinsic MIC towards P. aeruginosa (Table 1). […] While the observation of cytotoxicity/hemolytic properties of 16a–c, 14f and 13f reduces our interest in these analogues, analogues 13b and 13d were identified as non-toxic and strong enhancers of the action of doxycycline towards P. aeruginosa.

The subject of series [5] is C. albicans ATCC 90028. The series can be described thus: Antifungal MIC, C. albicans (CO-ADD). In kind it is cell-based. The settings on record: Candida albicans, ATCC90028, mean (n = 2). The protocol: as §2
In series [6] the test system is E. coli ATCC 25922. Description: Antimicrobial MIC, E. coli. In kind it is cell-based, Escherichia coli. The settings on record: mean (n = 3). The method, then:
as §2

Series [7] has as its system C. neoformans ATCC 208821. The series can be described thus: Antifungal MIC, C. neoformans (CO-ADD). In kind it is cell-based. The settings on record: Cryptococcus neoformans, ATCC208821, mean (n = 2). The method, then: as §2
Series [8] deals with S. aureus ATCC 25923. Description: Antimicrobial MIC, S. aureus. In kind it is cell-based. The settings on record: Staphylococcus aureus, ATCC25923, mean (n = 3). The method, then:
as §2

Series [9] concerns human red blood cells. Description: Hemolytic assay. It counts as cell-based. The settings on record: mean (n = 2). The protocol:
Hemolysis assays were conducted using the protocols previously reported.

Series [10] is described as follows: Cytotoxicity assay. It counts as cell-based, human. Conditions: human, HEK293 human embryonic kidney cells, mean (n = 2), read-out: Cytotoxicity (IC50), concentration of compound at 50% cytotoxicity. The method, then: Cytotoxicity assays were conducted using the protocols previously reported.
Setting [11] is: Escherichia coli, ATCC25922, E. coli ATCC 25922.

Values after ≈ are worked out from the molar mass of the structure shown. Some results are limits rather than exact numbers.

Turning to `O=C(C=Cc1ccccc1)NCCCNCCCCNCCCNC(=O)C=Cc1ccccc1.O=C(O)C(F)(F)F.O=C(O)C(F)(F)F` [Compound 13a, N^1,N^4-Bis(3-cinnamamidopropyl)butane-1,4-diaminium 2,2,2-trifluoroacetate], the “Eryth/E. c: concentration required to restore erythromycin activity” value (shortened to “Eryth/E. c: concentration required”) in [1] came out at 145 µM. The “Eryth/E. c: fold change (intrinsic MIC of test compound / combination MIC)” value in series [1] worked out at 5 fold. Moreover, the MIC was above 46.3 µM in [2]; 724 µM in series [3]; above 46.3 µM in series [5]; 724 µM in series [6] (setting [11]); above 46.3 µM in [7]; 724 µM in series [8]. Besides, the “Dox/P. a: concentration required to restore doxycycline activity” value (from here on “Dox/P. a: concentration required”) in [4] is given as 145 µM. For the same molecule, the “Dox/P. a: fold change (intrinsic MIC of test compound / combination MIC)” value in [4] is recorded as 5 fold.
As to `COc1ccc(/C=C/C(=O)NCCCNCCCCNCCCNC(=O)/C=C/c2ccc(OC)cc2)cc1.O=C(O)C(F)(F)F.O=C(O)C(F)(F)F` [Compound 14a, N^1,N^4-Bis(3-((E)-3-(4-methoxyphenyl)acrylamido)propyl)butane-1,4-diaminium 2,2,2-trifluoroacetate], the “Eryth/E. c: concentration required” value in series [1] is recorded as 67 µM. For the same molecule, the “Eryth/E. c: fold change (intrinsic MIC of test compound / combination MIC)” value in [1] is recorded as 4 fold. Also, in series [9], the “Hemolysis (HC10), concentration of compound at 10% hemolytic activity” value (“Hemolysis (HC10) … at 10% hemolytic activity” below) is above 42.6 µM. For the same molecule, the MIC is above 42.6 µM in series [2]; above 266 µM in series [3]; above 42.6 µM in [5]; 266 µM in series [6] (setting [11]); 33.3 µM in series [8]. Besides, the “Dox/P. a: concentration required” value in series [4] was 16.6 µM. Further, the “Dox/P. a: fold change (intrinsic MIC of test compound / combination MIC)” value in series [4] is recorded as above 16 fold. Moreover, in [10], the IC50 was above 42.6 µM.
As for `COc1ccc(/C=C/C(=O)NCCCNCCCCCCCNCCCNC(=O)/C=C/c2ccc(OC)cc2)cc1.O=C(O)C(F)(F)F.O=C(O)C(F)(F)F` [Compound 14c, N^1,N^7-Bis(3-((E)-3-(4-methoxyphenyl)acrylamido)propyl)heptane-1,7-diaminium 2,2,2-trifluoroacetate], in series [1], the “Eryth/E. c: concentration required” value turned out to be 126 µM. In [1], the “Eryth/E. c: fold change (intrinsic MIC of test compound / combination MIC)” value is 2 fold. For the same molecule, in series [9], the “Hemolysis (HC10) … at 10% hemolytic activity” value was above 40.4 µM. The MIC in [2] is 20.2 µM; in series [3] it was above 252 µM; in series [5], above 40.4 µM; in [6] (setting [11]) it was 252 µM; in series [8], 31.5 µM. In addition, in series [4], the “Dox/P. a: concentration required” value is reported as 31.5 µM. Moreover, in series [4], the “Dox/P. a: fold change (intrinsic MIC of test compound / combination MIC)” value is given as above 8 fold. Also, in series [10], the IC50 is above 40.4 µM.
Turning to `COc1ccc(/C=C/C(=O)NCCCNCCCCCCCCCCNCCCNC(=O)/C=C/c2ccc(OC)cc2)cc1.O=C(O)C(F)(F)F.O=C(O)C(F)(F)F` [Compound 14e, N^1,N^10-Bis(3-((E)-3-(4-methoxyphenyl)acrylamido)propyl)decane-1,10-diaminium 2,2,2-trifluoroacetate], the “Hemolysis (HC10) … at 10% hemolytic activity” value in series [9] is recorded as above 38.3 µM. The MIC in series [2] is at most 0.3 µM; in [3] it was 240 µM; in series [5], 38.3 µM; in series [6] (setting [11]), 120 µM; in series [7], at most 0.3 µM; in series [8], 1.87 µM. In addition, the “Dox/P. a: concentration required” value in [4] was 60 µM. Further, in series [4], the “Dox/P. a: fold change (intrinsic MIC of test compound / combination MIC)” value was 4 fold. Besides, the IC50 in series [10] was 2.3 µM.
Turning to `COc1ccc(/C=C/C(=O)NCCCNCCCCCCCCCCCCNCCCNC(=O)/C=C/c2ccc(OC)cc2)cc1.O=C(O)C(F)(F)F.O=C(O)C(F)(F)F` [Compound 14f, N^1,N^12-Bis(3-((E)-3-(4-methoxyphenyl)acrylamido)propyl)dodecane-1,12-diaminium 2,2,2-trifluoroacetate], in series [1], the “Eryth/E. c: concentration required” value was found to be 3.62 µM. The “Eryth/E. c: fold change (intrinsic MIC of test compound / combination MIC)” value in series [1] was found to be 2 fold. In addition, the MIC in series [2] is at most 0.29 µM; in [3] it was 232 µM; in [5] it was above 37.1 µM; in series [6] (E. coli ATCC 25922), 7.24 µM; in series [6] (setting [11]) it was 7.2 µM; in series [8], 3.62 µM. Moreover, the “Dox/P. a: concentration required” value in [4] was 7.24 µM. For the same molecule, the “Dox/P. a: fold change (intrinsic MIC of test compound / combination MIC)” value in [4] is listed as 32 fold. For the same molecule, in series [10], the IC50 was determined as 24.3 µM.
For the molecule `COc1ccc(/C=C/C(=O)NCCCNCCCCNCCCNC(=O)/C=C/c2ccc(OC)c(Br)c2)cc1Br.O=C(O)C(F)(F)F.O=C(O)C(F)(F)F` [Compound 15a, N^1,N^4-Bis(3-((E)-3-(3-bromo-4-methoxyphenyl)acrylamido)propyl)butane-1,4-diaminium 2,2,2-trifluoroacetate], the “Eryth/E. c: concentration required” value in [1] stood at 13.7 µM. Besides, the “Eryth/E. c: fold change (intrinsic MIC of test compound / combination MIC)” value in [1] came to 4 fold. Further, the MIC in series [2] was 2.2 µM; in [3] it was above 220 µM; in series [5], 17.6 µM; in series [6] (setting [11]), 55 µM; in [7], at most 0.28 µM; in series [8] it was 13.8 µM. Further, the “Dox/P. a: concentration required” value in [4] came to 27.5 µM. Further, the “Dox/P. a: fold change (intrinsic MIC of test compound / combination MIC)” value in series [4] is reported as above 8 fold. Further, the IC50 in [10] was above 35.2 µM.
In the case of `COc1ccc(/C=C/C(=O)NCCCNCCCCCCCNCCCNC(=O)/C=C/c2ccc(OC)c(Br)c2)cc1Br.O=C(O)C(F)(F)F.O=C(O)C(F)(F)F` [Compound 15c, N^1,N^7-Bis(3-((E)-3-(3-bromo-4-methoxyphenyl)acrylamido)propyl)heptane-1,7-diaminium 2,2,2-trifluoroacetate], the “Eryth/E. c: concentration required” value in series [1] was 13.1 µM. Also, the “Eryth/E. c: fold change (intrinsic MIC of test compound / combination MIC)” value in series [1] is given as 2 fold. For the same molecule, the MIC in series [2] was at most 0.26 µM; in series [3], above 210 µM; in series [5], 8.4 µM; in series [6] (setting [11]), 26 µM; in series [7] it was at most 0.26 µM; in series [8], 6.57 µM. Further, the “Dox/P. a: concentration required” value in [4] came to 26.3 µM. The “Dox/P. a: fold change (intrinsic MIC of test compound / combination MIC)” value in series [4] is given as above 8 fold. Besides, the IC50 in series [10] is above 33.7 µM.
On to `COc1ccc(/C=C/C(=O)NCCCNCCCCCCCCCCCCNCCCNC(=O)/C=C/c2ccc(OC)c(Br)c2)cc1Br.O=C(O)C(F)(F)F.O=C(O)C(F)(F)F` [Compound 15f, N^1,N^12-Bis(3-((E)-3-(3-bromo-4-methoxyphenyl)acrylamido)propyl)dodecane-1,12-diaminium 2,2,2-trifluoroacetate], for which the “Eryth/E. c: concentration required” value in [1] is 6.1 µM. In addition, in series [1], the “Eryth/E. c: fold change (intrinsic MIC of test compound / combination MIC)” value is on record as 1 fold. The “Hemolysis (HC10) … at 10% hemolytic activity” value in series [9] was 1.17 µM. In addition, the MIC in series [2] was at most 0.24 µM; in [3] it was above 196 µM; in series [6] (setting [11]) it was 6.12 µM; in [7], at most 0.24 µM; in [8], 6.12 µM. Moreover, the “Dox/P. a: concentration required” value in series [4] is 49.0 µM. For the same molecule, the “Dox/P. a: fold change (intrinsic MIC of test compound / combination MIC)” value in series [4] is on record as above 4 fold. Moreover, in series [10], the IC50 is 1.12 µM.
For `OC(Cn1cncn1)(Cn1cncn1)c1ccc(F)cc1F` [fluconazole, reference compound], the MIC in series [5] stood at 0.4 µM (≈ 0.123 µg/mL); in [7], 26 µM (≈ 7.96 µg/mL).
Consider `[H]/N=C(/N)N[C@H]1[C@H](O)[C@@H](O)[C@H](O[C@@H]2O[C@@H](C)[C@](O)(C=O)[C@H]2O[C@@H]2O[C@@H](CO)[C@H](O)[C@@H](O)[C@@H]2NC)[C@@H](N/C(N)=N\[H])[C@@H]1O` [streptomycin, reference compound], for which the MIC in series [3], in series [6] (setting [11]) and in [8] was 21.5 µM (≈ 12.5 µg/mL) throughout.
Consider `CC/C(=C(\c1ccccc1)c1ccc(OCCN(C)C)cc1)c1ccccc1` [tamoxifen, reference compound], for which the IC50 in series [10] came to 24 µM.
